Experimental findings from ChEMBL document CHEMBL1201862, “PubChem BioAssay data set” (2004) are described below.

Among the test systems are CCRF-CEM; HCC 2998; HL-60; HOP-62; HOP-92; HT-29; M14; Malme-3M; NCI-H23; OVCAR-3; OVCAR-5; OVCAR-8; RPMI-8226; SF-539; SK-MEL-2; SNB-19; U-251; UACC-62; UO-31; A549.
Assay in all cases: DTP human tumour cell line panel, 48 h

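A five-concentration, 48-hour dose response in 96-well plates underlies each endpoint, interpolated linearly between surrounding concentrations. GI50 is the concentration that inhibits growth by half.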 The source made the active and inactive calls. No stated cut-off is given here; in the data, active = GI50 up to about 1.1 µM and inactive = higher.

For the compound `NNC(=O)CCc1ccc2ccc3ccccc3c2c1`, the GI50 in the test with CCRF-CEM is > 100 µM (inactive); in the test with HCC 2998, > 100 µM (inactive); with HL-60, 0.312 µM (active); in the test on HOP-62 it was > 100 µM (inactive); in the test on HOP-92 it was 58.7 µM (inactive); with HT-29, > 100 µM (inactive). The GI50 with M14 was 71.8 µM (inactive); in the test on Malme-3M it was 79.1 µM (inactive); in the test with NCI-H23, > 100 µM (inactive); in the test with OVCAR-3, 29.9 µM (inactive); with OVCAR-5, > 100 µM (inactive); with OVCAR-8, > 100 µM (inactive). Besides, the GI50 is 72.1 µM (inactive) in the test on RPMI-8226; 54.6 µM (inactive) in the test with SF-539; > 100 µM (inactive) in the test on SK-MEL-2; 85.7 µM (inactive) with SNB-19; > 100 µM (inactive) in the test on U-251; > 100 µM (inactive) with UACC-62. In addition, the GI50 in the test on UO-31 was 18.8 µM (inactive).

For the compound `O=C(OCc1ccccc1)C(Cc1ccccc1)N(Cc1ccccc1)Cc1ccccc1` (configuration not stated), the GI50 in the test with A549 is 65.9 µM (inactive); in the test with CCRF-CEM it was 25.8 µM (inactive); in the test on HCC 2998, 35.7 µM (inactive); in the test with HL-60 it was 36.7 µM (inactive); with HOP-62, > 100 µM (inactive); in the test on HOP-92, > 100 µM (inactive). Also, the GI50 in the test on HT-29 was > 100 µM (inactive); in the test with M14, > 100 µM (inactive); in the test with Malme-3M, > 100 µM (inactive); in the test with NCI-H23, > 100 µM (inactive); in the test with OVCAR-3 it was 84.7 µM (inactive); in the test with OVCAR-5 it was > 100 µM (inactive). Moreover, the GI50 with OVCAR-8 is > 100 µM (inactive); in the test on RPMI-8226, 37.1 µM (inactive); with SF-539, > 100 µM (inactive); in the test on SK-MEL-2, > 100 µM (inactive); with SNB-19, > 100 µM (inactive); in the test with U-251 it was 27.7 µM (inactive). For the same compound, the GI50 was 80 µM (inactive) in the test on UACC-62 and 59 µM (inactive) in the test on UO-31.

In the case of `O=[N+]([O-])c1ccccc1S(=O)(=O)c1cccc2c1NCCC2`, the GI50 with A549 was 31.9 µM (inactive); with CCRF-CEM it was 28 µM (inactive); in the test with HCC 2998, 56.8 µM (inactive); with HL-60, 24 µM (inactive); in the test on HOP-62 it was 72.6 µM (inactive); in the test with HOP-92, 32.7 µM (inactive). Further, the GI50 was 29.7 µM (inactive) in the test with HT-29; 82.8 µM (inactive) in the test with M14; 48.1 µM (inactive) in the test with Malme-3M; 40.6 µM (inactive) with OVCAR-3; > 100 µM (inactive) with OVCAR-5; 69.3 µM (inactive) in the test on OVCAR-8. Besides, the GI50 in the test with RPMI-8226 was > 100 µM (inactive); with SF-539 it was > 100 µM (inactive); in the test with SK-MEL-2, 21.6 µM (inactive); with SNB-19, 65.2 µM (inactive); in the test on UACC-62, 24.2 µM (inactive); in the test with UO-31, 47.4 µM (inactive).

On to `CC(C)NC(=O)CN1CCN(C2=C(Cl)C(=O)c3c(O)ccc(O)c3C2=O)CC1`, for which the GI50 in the test with A549 was 8.13 µM (inactive); with CCRF-CEM it was 0.293 µM (active); in the test on HCC 2998, 2.92 µM (inactive); with HL-60, 0.187 µM (active); in the test on HOP-62, 7.45 µM (inactive); in the test on HOP-92 it was 2.24 µM (inactive). For the same compound, the GI50 is 1.26 µM (inactive) with HT-29; 1.46 µM (inactive) in the test with M14; 1.04 µM (active) in the test with Malme-3M; 1.03 µM (active) in the test on NCI-H23; 1.57 µM (inactive) with OVCAR-3; 2.92 µM (inactive) with OVCAR-5. Further, the GI50 in the test on OVCAR-8 is 0.861 µM (active); with RPMI-8226, 1.99 µM (inactive); in the test with SF-539, 1.97 µM (inactive); with SK-MEL-2, 1.49 µM (inactive); in the test with SNB-19, 13.6 µM (inactive); in the test with U-251, 3.31 µM (inactive). In addition, the GI50 was 1.73 µM (inactive) with UACC-62 and 1.03 µM (active) with UO-31.

For the compound `CC1CCC2N(C1)CC1C3(O)CC45OC6(O)C(O)CCC4(C)C6CCC5C3(O)CC(O)C1(O)C2(C)O` (configuration not stated), the GI50 in the test with A549, in the test on CCRF-CEM, in the test on HCC 2998, in the test with HL-60, with HOP-62 and in the test on HOP-92 was > 100 µM (inactive) each time. For the same compound, the GI50 with HT-29, with M14, with Malme-3M, with NCI-H23, in the test with OVCAR-3 and in the test on OVCAR-5 was > 100 µM (inactive) in each case. For the same compound, the GI50 in the test on OVCAR-8, in the test on RPMI-8226, with SF-539, in the test on SK-MEL-2, in the test on SNB-19 and in the test on U-251 was > 100 µM (inactive) each time. For the same compound, the GI50 in the test on UACC-62 and in the test on UO-31 was > 100 µM (inactive) each time.
